{
  "source": "PubChem BioAssay (NCI)",
  "assay_in_all_cases": "NCI anticancer screen, dose series, 48 h",
  "key": {"T-47D breast": {"test_system": "T-47D breast"}, "HS 578T breast": {"test_system": "HS 578T breast"}, "HCT-15 colon": {"test_system": "HCT-15 colon"}, "OVCAR-5 ovarian": {"test_system": "OVCAR-5 ovarian"}, "OVCAR-3 ovarian": {"test_system": "OVCAR-3 ovarian"}, "SN12C renal": {"test_system": "SN12C renal"}, "NCI/ADR-RES ovarian": {"test_system": "NCI/ADR-RES ovarian"}, "MALME-3M melanoma": {"test_system": "MALME-3M melanoma"}, "MDA-MB-435": {"test_system": "MDA-MB-435"}, "MOLT-4 leukemia": {"test_system": "MOLT-4 leukemia"}, "OVCAR-8 ovarian": {"test_system": "OVCAR-8 ovarian"}, "NCI-H226 lung": {"test_system": "NCI-H226 lung"}, "SF-295 CNS": {"test_system": "SF-295 CNS"}, "OVCAR-4 ovarian": {"test_system": "OVCAR-4 ovarian"}, "NCI-H460 lung": {"test_system": "NCI-H460 lung"}, "UACC-62 melanoma": {"test_system": "UACC-62 melanoma"}, "SF-539 CNS": {"test_system": "SF-539 CNS"}, "786-0 renal": {"test_system": "786-0 renal"}, "HOP-62 NSCLC": {"test_system": "HOP-62 NSCLC"}, "IGROV1 ovarian": {"test_system": "IGROV1 ovarian"}, "MCF7 breast": {"test_system": "MCF7 breast"}, "NCI-H522 lung": {"test_system": "NCI-H522 lung"}, "LOX IMVI melanoma": {"test_system": "LOX IMVI melanoma"}, "CCRF-CEM leukemia": {"test_system": "CCRF-CEM leukemia"}, "SK-MEL-5 melanoma": {"test_system": "SK-MEL-5 melanoma"}, "SW-620 colon": {"test_system": "SW-620 colon"}, "KM12 colon": {"test_system": "KM12 colon"}, "HOP-92 NSCLC": {"test_system": "HOP-92 NSCLC"}, "HT29 colon": {"test_system": "HT29 colon"}, "UACC-257 melanoma": {"test_system": "UACC-257 melanoma"}, "SNB-19 CNS": {"test_system": "SNB-19 CNS"}, "SK-MEL-2 melanoma": {"test_system": "SK-MEL-2 melanoma"}, "PC-3 prostate": {"test_system": "PC-3 prostate"}, "MDA-MB-231 breast": {"test_system": "MDA-MB-231 breast"}, "TK-10 renal": {"test_system": "TK-10 renal"}, "ACHN renal": {"test_system": "ACHN renal"}, "MDA-N": {"test_system": "MDA-N"}, "SF-268 CNS": {"test_system": "SF-268 CNS"}, "HL-60(TB) leukemia": {"test_system": "HL-60(TB) leukemia"}, "SR leukemia": {"test_system": "SR leukemia"}, "K-562 leukemia": {"test_system": "K-562 leukemia"}, "A549 NSCLC": {"test_system": "A549 NSCLC"}, "SNB-75 CNS": {"test_system": "SNB-75 CNS"}, "SK-MEL-28 melanoma": {"test_system": "SK-MEL-28 melanoma"}, "NCI-H23 lung": {"test_system": "NCI-H23 lung"}, "EKVX NSCLC": {"test_system": "EKVX NSCLC"}, "HCT-116 colon": {"test_system": "HCT-116 colon"}, "DU-145 prostate": {"test_system": "DU-145 prostate"}},
  "note": "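Five compound concentrations were applied to cells in 96-well plates for 48 hours; endpoints were derived by simple linear interpolation of the resulting dose-response curve. TGI marks complete inhibition of growth.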",
  "data": [
    {"compound": "COC(=O)C1(C(=O)OC)Cc2ccc(C)cc2C2=C1C(=O)c1ccccc1C2=O", "values": [
      {"measurement": "TGI", "setting": "T-47D breast", "result": 29.9, "unit": "µM"},
      {"measurement": "TGI", "setting": "HS 578T breast", "result": "> 100", "unit": "µM"},
      {"measurement": "TGI", "setting": "HCT-15 colon", "result": 30.1, "unit": "µM"},
      {"measurement": "TGI", "setting": "OVCAR-5 ovarian", "result": 35.5, "unit": "µM"},
      {"measurement": "TGI", "setting": "OVCAR-3 ovarian", "result": 14.9, "unit": "µM"},
      {"measurement": "TGI", "setting": "SN12C renal", "result": 48.1, "unit": "µM"},
      {"measurement": "TGI", "setting": "NCI/ADR-RES ovarian", "result": 80.1, "unit": "µM"},
      {"measurement": "TGI", "setting": "MALME-3M melanoma", "result": 87.5, "unit": "µM"},
      {"measurement": "TGI", "setting": "MDA-MB-435", "result": 31.4, "unit": "µM"},
      {"measurement": "TGI", "setting": "MOLT-4 leukemia", "result": 31.7, "unit": "µM"},
      {"measurement": "TGI", "setting": "OVCAR-8 ovarian", "result": 34.6, "unit": "µM"},
      {"measurement": "TGI", "setting": "NCI-H226 lung", "result": "> 100", "unit": "µM"},
      {"measurement": "TGI", "setting": "SF-295 CNS", "result": 36.1, "unit": "µM"},
      {"measurement": "TGI", "setting": "OVCAR-4 ovarian", "result": 23.7, "unit": "µM"},
      {"measurement": "TGI", "setting": "NCI-H460 lung", "result": "> 100", "unit": "µM"},
      {"measurement": "TGI", "setting": "UACC-62 melanoma", "result": 35.8, "unit": "µM"},
      {"measurement": "TGI", "setting": "SF-539 CNS", "result": 61.8, "unit": "µM"},
      {"measurement": "TGI", "setting": "786-0 renal", "result": 68.9, "unit": "µM"},
      {"measurement": "TGI", "setting": "HOP-62 NSCLC", "result": 29, "unit": "µM"},
      {"measurement": "TGI", "setting": "IGROV1 ovarian", "result": 44.3, "unit": "µM"},
      {"measurement": "TGI", "setting": "MCF7 breast", "result": 35.7, "unit": "µM"},
      {"measurement": "TGI", "setting": "NCI-H522 lung", "result": 32, "unit": "µM"},
      {"measurement": "TGI", "setting": "LOX IMVI melanoma", "result": 39.9, "unit": "µM"},
      {"measurement": "TGI", "setting": "CCRF-CEM leukemia", "result": 49.4, "unit": "µM"},
      {"measurement": "TGI", "setting": "SK-MEL-5 melanoma", "result": 28.6, "unit": "µM"},
      {"measurement": "TGI", "setting": "SW-620 colon", "result": 45.8, "unit": "µM"},
      {"measurement": "TGI", "setting": "KM12 colon", "result": 59.6, "unit": "µM"},
      {"measurement": "TGI", "setting": "HOP-92 NSCLC", "result": 38.7, "unit": "µM"},
      {"measurement": "TGI", "setting": "HT29 colon", "result": 62.2, "unit": "µM"},
      {"measurement": "TGI", "setting": "UACC-257 melanoma", "result": 31.2, "unit": "µM"},
      {"measurement": "TGI", "setting": "SNB-19 CNS", "result": "> 100", "unit": "µM"},
      {"measurement": "TGI", "setting": "SK-MEL-2 melanoma", "result": 30.7, "unit": "µM"},
      {"measurement": "TGI", "setting": "PC-3 prostate", "result": 31.3, "unit": "µM"},
      {"measurement": "TGI", "setting": "MDA-MB-231 breast", "result": 33, "unit": "µM"},
      {"measurement": "TGI", "setting": "TK-10 renal", "result": "> 100", "unit": "µM"},
      {"measurement": "TGI", "setting": "ACHN renal", "result": 31.7, "unit": "µM"},
      {"measurement": "TGI", "setting": "MDA-N", "result": 32, "unit": "µM"},
      {"measurement": "TGI", "setting": "SF-268 CNS", "result": 48.9, "unit": "µM"},
      {"measurement": "TGI", "setting": "HL-60(TB) leukemia", "result": "> 100", "unit": "µM"},
      {"measurement": "TGI", "setting": "SR leukemia", "result": "> 100", "unit": "µM"},
      {"measurement": "TGI", "setting": "K-562 leukemia", "result": 46.5, "unit": "µM"},
      {"measurement": "TGI", "setting": "A549 NSCLC", "result": "> 100", "unit": "µM"},
      {"measurement": "TGI", "setting": "SNB-75 CNS", "result": 32.2, "unit": "µM"},
      {"measurement": "TGI", "setting": "SK-MEL-28 melanoma", "result": 32.5, "unit": "µM"},
      {"measurement": "TGI", "setting": "NCI-H23 lung", "result": 46.1, "unit": "µM"},
      {"measurement": "TGI", "setting": "EKVX NSCLC", "result": 29.4, "unit": "µM"},
      {"measurement": "TGI", "setting": "HCT-116 colon", "result": 40.3, "unit": "µM"},
      {"measurement": "TGI", "setting": "DU-145 prostate", "result": 36.9, "unit": "µM"}
    ]}
  ]
}
